# Data from patent US5100873A, “Irreversible peptide ligands for bombesin receptors, their use, and process for making the same” (priority 1988, dated 1992).
# Counter-ions that a name gives are not always drawn. Like-named read-outs stand apart in the source and are kept apart here. *1 amine or outer side, *2 acyl side, *3 side chain or, on linkers, in order; H or OH if unused. Where a SMILES comes first, the peptide text is derived from it. [ ]: non-standard residue; d: D form. The star is where a group is joined. Phe(4-N(CH2CH2Cl)2) = N[C@@H](Cc1ccc(N(CCCl)CCCl)cc1)C(=O)O; X1 = O=C([C@H](Cc1cccc(N(CCCl)CCCl)c1)N[*:1])[*:2]; Boc = CC(C)(C)OC(=O)*
# Assays:
# Swiss 3T3 fibroblasts [1] = test: [H3]thymidine incorporation (mitogenesis), analogues given alone; assay type: cell-based, mouse; settings: for [H3]thymidine incorporation, fold increase over basal value: analogue alone; for Effect on thymidine incorporation (in words): given alone
# Protocol: (§1) The effect on mitogenesis was determined in quiescent and confluent Swiss 3T3 cells maintained in serum free medium (A. N. Corps et al (1985) Biochem J. 231, 781-785). In a first set of experiments, analogues were given alone or in combination with bombesin. In a second set of experiments, cells were pre-treated with the alkylating peptides, washed, left at 37° C. for 24 hours and then challenged with bombesin. In both cases, DNA synthesis was evaluated as [H^3 ]thymidine incorporation (Table 2).
# [2] = system: p115 protein associated with the bombesin receptor complex; test: Phosphorylation of the p115 protein associated with the bombesin receptor; assay type: cell-based
# Protocol: Mitogenic effect of bombesin and its analogues were also evaluated as activation of the proteintyrosin kinase that phosphorylates a 115 KD protein (p115) associated with the bombesin receptor complex (D. Cirillo et al. (1986) Mol. Cell. Biol. 6, 4641-4649) (Table 3).
# bombesin receptors = biological target: T1, bombesin receptors (Mus musculus, UniProt P21729); test: Binding affinity for bombesin receptors on mouse Swiss 3T3 fibroblasts; settings: for ID50: mouse Swiss 3T3 fibroblasts
# T1 construct: bombesin receptors was determined on mouse Swiss 3T3 fibroblasts; endogenous in cells; host or cells: mouse Swiss 3T3 fibroblasts
# T1 sequence (P21729 whole entry): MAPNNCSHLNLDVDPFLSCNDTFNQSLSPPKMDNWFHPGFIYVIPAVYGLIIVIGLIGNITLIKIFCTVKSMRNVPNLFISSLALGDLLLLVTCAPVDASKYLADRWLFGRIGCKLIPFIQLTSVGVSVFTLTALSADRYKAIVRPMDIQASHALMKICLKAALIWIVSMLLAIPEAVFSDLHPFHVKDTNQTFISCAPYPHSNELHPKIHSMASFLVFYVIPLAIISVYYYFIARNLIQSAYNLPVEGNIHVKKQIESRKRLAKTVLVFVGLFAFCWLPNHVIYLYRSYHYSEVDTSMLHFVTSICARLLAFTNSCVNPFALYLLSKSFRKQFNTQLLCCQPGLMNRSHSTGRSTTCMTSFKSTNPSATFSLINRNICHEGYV
# Protocol: The binding affinity of the compounds of the present invention for bombesin receptors was determined on mouse Swiss 3T3 fibroblasts (I. Zachary and E. Rozengurt (1985) Proc. Natl. Acad. Sci. USA, 82, 7616-7620) (Table 1).
# Swiss 3T3 fibroblasts [3] = test: Inhibition of BBS-induced [H3]thymidine incorporation (given with BBS or as pre-treatment); assay type: cell-based, mouse; settings: for % inhibition in the presence of 25 nM BBS (A): A = analogues given in combination with BBS; for % inhibition in the presence of 25 nM BBS (B): B = cells pretreated with analogues, washed, left at 37° C. for 24 h, then challenged with BBS; for Antagonism of BBS (in words): given together / contemporaneously with BBS
# Protocol: as §1
# Swiss 3T3 fibroblasts [4] = test: as above; assay type: cell-based, mouse
compound,measurement,setting,value
"CSCC[C@H](NC(=O)[C@H](CC(C)C)NC(=O)[C@H](Cc1cnc[nH]1)NC(=O)CNC(=O)[C@@H](NC(=O)[C@H](C)NC(=O)[C@H](Cc1c[nH]c2ccccc12)NC(=O)[C@H](CCC(N)=O)NC(=O)[C@H](CC(N)=O)NC(=O)CNC(=O)[C@H](CC(C)C)NC(=O)[C@H](CCCN=C(N)N)NC(=O)[C@H](CCC(N)=O)NC(=O)[C@@H]1CCC(=O)N1)C(C)C)C(N)=O [BBS, Glp-Gln-Arg-Leu-Gly-Asn-Gln-Trp-Ala-Val-Gly-His-Leu-Met-NH2, reference compound]","[H3]thymidine incorporation, fold increase over basal value",Swiss 3T3 fibroblasts [1]; 5 nM,3.0 ± 1
same,"Minimal active dose, p115 phosphorylation",[2],3
"CC(C)[C@H](NC(=O)[C@H](C)NC(=O)[C@H](Cc1c[nH]c2ccccc12)NC(=O)[C@H](CCC(N)=O)NC(=O)[C@H](Cc1ccc(N(CCCl)CCCl)cc1)NC(=O)OC(C)(C)C)C(=O)NCC(=O)O [III, Boc-pMel-Gln-Trp-Ala-Val-Gly-OH] (Boc-[Phe(4-N(CH2CH2Cl)2)]QWAVG-OH)",IC50,bombesin receptors,12000 nM
"CC(C)[C@H](NC(=O)[C@H](C)NC(=O)[C@H](Cc1c[nH]c2ccccc12)NC(=O)[C@H](CCC(N)=O)NC(=O)[C@H](Cc1cccc(N(CCCl)CCCl)c1)NC(=O)OC(C)(C)C)C(=O)NCC(=O)O [IX, Boc-mMel-Gln-Trp-Ala-Val-Gly-OH] (Boc-[X1]QWAVG-OH)",IC50,bombesin receptors,8200 nM
"CC(C)C[C@H](NC(=O)[C@H](CC(C)C)NC(=O)[C@@H](Cc1c[nH]c2ccccc12)NC(=O)[C@H](Cc1ccccc1)NC(=O)[C@@H](Cc1c[nH]c2ccccc12)NC(=O)[C@H](CCC(N)=O)NC(=O)[C@H](CCC(N)=O)NC(=O)[C@@H]1CCCN1C(=O)[C@H](CCCCN)NC(=O)[C@@H]1CCCN1C(=O)[C@H](N)CCCNC(=N)N)C(N)=O [Spantide, reference compound] (H-[dR]PKPQQ[dW]F[dW]LL-NH2)","Minimal active dose, p115 phosphorylation",[2],> 10000 nM
"CSCC[C@H](NC(=O)[C@H](CC(C)C)NC(=O)[C@H](Cc1c[nH]cn1)NC(=O)CNC(=O)[C@@H](NC(=O)[C@H](C)NC(=O)[C@H](Cc1c[nH]c2ccccc12)NC(=O)[C@H](CCC(N)=O)NC(=O)[C@H](Cc1ccc(N(CCCl)CCCl)cc1)NC(=O)OC(C)(C)C)C(C)C)C(N)=O [VI, Boc-pMel-Gln-Trp-Ala-Val-Gly-His-Leu-Met-NH2]",IC50,bombesin receptors,48 ± 2 nM
"CSCC[C@H](NC(=O)[C@H](CC(C)C)NC(=O)[C@H](Cc1c[nH]cn1)NC(=O)CNC(=O)[C@@H](NC(=O)[C@H](C)NC(=O)[C@H](Cc1c[nH]c2ccccc12)NC(=O)[C@H](CCC(N)=O)NC(=O)[C@@H](N)Cc1ccc(N(CCCl)CCCl)cc1)C(C)C)C(N)=O [VII, H-pMel-Gln-Trp-Ala-Val-Gly-His-Leu-Met-NH2.2 HCl]",IC50,bombesin receptors,60 ± 20 nM
"CSCC[C@H](NC(=O)[C@H](CC(C)C)NC(=O)CNC(=O)[C@@H](NC(=O)[C@H](C)NC(=O)[C@H](Cc1c[nH]c2ccccc12)NC(=O)[C@H](CCC(N)=O)NC(=O)[C@@H](NC(=O)CNC(=O)[C@H](CC(C)C)NC(=O)[C@H](Cc1cccc(N(CCCl)CCCl)c1)NC(=O)OC(C)(C)C)[C@@H](C)O)C(C)C)C(N)=O [XIV, Boc-mMel-Leu-Gly-Thr-Gln-Trp-Ala-Val-Gly-Leu-Met-NH2] (Boc-[X1]LGTQWAVGLM-NH2)",IC50,bombesin receptors,445 ± 60 nM
"CSCC[C@H](NC(=O)[C@H](CC(C)C)NC(=O)[C@H](Cc1c[nH]cn1)NC(=O)CNC(=O)[C@@H](NC(=O)[C@H](C)NC(=O)[C@H](Cc1c[nH]c2ccccc12)NC(=O)[C@H](CCC(N)=O)NC(=O)[C@@H](N)Cc1cccc(N(CCCl)CCCl)c1)C(C)C)C(N)=O [XIX, H-mMel-Gln-Trp-Ala-Val-Gly-His-Leu-Met-NH2.2HCl]",IC50,bombesin receptors,95 ± 8 nM
"CSCC[C@H](NC(=O)[C@H](CC(C)C)NC(=O)[C@H](Cc1c[nH]cn1)NC(=O)CNC(=O)[C@@H](NC(=O)[C@H](C)NC(=O)[C@H](Cc1c[nH]c2ccccc12)NC(=O)[C@H](CCC(N)=O)NC(=O)[C@H](Cc1cccc(N(CCCl)CCCl)c1)NC(=O)OC(C)(C)C)C(C)C)C(N)=O [XVIII, Boc-mMel-Gln-Trp-Ala-Val-Gly-His-Leu-Met-NH3.CF3 COOH]",IC50,bombesin receptors,40 ± 12 nM
"CSCC[C@H](NC(=O)[C@H](CC(C)C)NC(=O)CNC(=O)[C@@H](NC(=O)[C@H](C)NC(=O)[C@H](Cc1c[nH]c2ccccc12)NC(=O)[C@H](CCC(N)=O)NC(=O)[C@H](Cc1cccc(N(CCCl)CCCl)c1)NC(=O)OC(C)(C)C)C(C)C)C(N)=O [XX, Boc-mMel-Gln-Trp-Ala-Val-Gly-Leu-Met-NH2] (Boc-[X1]QWAVGLM-NH2)",IC50,bombesin receptors,60.1 ± 3.3 nM
Boc-mMel-Gln-Trp-Ala-Val-Gly-His(Dnp)-Leu-Met-NH2 [XVI],ID50,bombesin receptors,390 ± 160 nM
same,"[H3]thymidine incorporation, fold increase over basal value",Swiss 3T3 fibroblasts [1]; 5 nM,1.2
same,"[H3]thymidine incorporation, fold increase over basal value",Swiss 3T3 fibroblasts [1]; 50 nM,1.6
same,"[H3]thymidine incorporation, fold increase over basal value",Swiss 3T3 fibroblasts [1]; 500 nM,3.1
same,"[H3]thymidine incorporation, fold increase over basal value",Swiss 3T3 fibroblasts [1]; 5000 nM,3.9
same,Effect on thymidine incorporation (in words),Swiss 3T3 fibroblasts [1],did not increase incorporation of thymidine
same,% inhibition in the presence of 25 nM BBS (A),Swiss 3T3 fibroblasts [3]; 500 nM,17 ± 2%
same,% inhibition in the presence of 25 nM BBS (B),Swiss 3T3 fibroblasts [3]; 500 nM,47 ± 10%
same,% inhibition in the presence of 25 nM BBS (A),Swiss 3T3 fibroblasts [3]; 5000 nM,41 ± 1%
same,% inhibition in the presence of 25 nM BBS (B),Swiss 3T3 fibroblasts [3]; 5000 nM,37 ± 7%
same,Antagonism of BBS (in words),Swiss 3T3 fibroblasts [3],potent antagonists
same,"Minimal active dose, p115 phosphorylation",[2],40 nM
same,Antagonism of BBS (in words),Swiss 3T3 fibroblasts [4],potent antagonists
Boc-pMel-Gln-Trp-Ala-Val-Gly-His(Dnp)-Leu-Met-NH2 [IV],ID50,bombesin receptors,"1,170 ± 400 nM"
same,"[H3]thymidine incorporation, fold increase over basal value",Swiss 3T3 fibroblasts [1]; 5 nM,1
same,"[H3]thymidine incorporation, fold increase over basal value",Swiss 3T3 fibroblasts [1]; 50 nM,1
same,"[H3]thymidine incorporation, fold increase over basal value",Swiss 3T3 fibroblasts [1]; 500 nM,1.7
same,"[H3]thymidine incorporation, fold increase over basal value",Swiss 3T3 fibroblasts [1]; 5000 nM,2.3
same,Effect on thymidine incorporation (in words),Swiss 3T3 fibroblasts [1],did not increase incorporation of thymidine
same,% inhibition in the presence of 25 nM BBS (A),Swiss 3T3 fibroblasts [3]; 500 nM,59 ± 3%
same,% inhibition in the presence of 25 nM BBS (B),Swiss 3T3 fibroblasts [3]; 500 nM,81%
same,% inhibition in the presence of 25 nM BBS (A),Swiss 3T3 fibroblasts [3]; 5000 nM,67 ± 3%
same,% inhibition in the presence of 25 nM BBS (B),Swiss 3T3 fibroblasts [3]; 5000 nM,73%
same,Antagonism of BBS (in words),Swiss 3T3 fibroblasts [3],potent antagonists
same,"Minimal active dose, p115 phosphorylation",[2],50 nM
same,Antagonism of BBS (in words),Swiss 3T3 fibroblasts [4],potent antagonists
H-mMel-Gln-Trp-Ala-Val-Gly-His-(Dnp)-Leu-Met-NH2.HCl [XVII],ID50,bombesin receptors,148 ± 27 nM
same,"[H3]thymidine incorporation, fold increase over basal value",Swiss 3T3 fibroblasts [1]; 5 nM,1
same,"[H3]thymidine incorporation, fold increase over basal value",Swiss 3T3 fibroblasts [1]; 50 nM,2.9
same,"[H3]thymidine incorporation, fold increase over basal value",Swiss 3T3 fibroblasts [1]; 500 nM,4.2
same,"[H3]thymidine incorporation, fold increase over basal value",Swiss 3T3 fibroblasts [1]; 5000 nM,3.9
same,Effect on thymidine incorporation (in words),Swiss 3T3 fibroblasts [1],did not increase incorporation of thymidine
same,% inhibition in the presence of 25 nM BBS (A),Swiss 3T3 fibroblasts [3]; 500 nM,6 ± 3%
same,% inhibition in the presence of 25 nM BBS (B),Swiss 3T3 fibroblasts [3]; 500 nM,58 ± 13%
same,% inhibition in the presence of 25 nM BBS (A),Swiss 3T3 fibroblasts [3]; 5000 nM,20 ± 7%
same,% inhibition in the presence of 25 nM BBS (B),Swiss 3T3 fibroblasts [3]; 5000 nM,62 ± 1%
same,Antagonism of BBS (in words),Swiss 3T3 fibroblasts [3],potent antagonists
same,"Minimal active dose, p115 phosphorylation",[2],4 nM
same,Antagonism of BBS (in words),Swiss 3T3 fibroblasts [4],potent antagonists
H-pMel-Gln-Trp-Ala-Val-Gly-His(Dnp)-Leu-Met-NH2.HCl,ID50,bombesin receptors,680 ± 150 nM
same,"[H3]thymidine incorporation, fold increase over basal value",Swiss 3T3 fibroblasts [1]; 5 nM,1
same,"[H3]thymidine incorporation, fold increase over basal value",Swiss 3T3 fibroblasts [1]; 50 nM,1
same,"[H3]thymidine incorporation, fold increase over basal value",Swiss 3T3 fibroblasts [1]; 500 nM,1.4
same,"[H3]thymidine incorporation, fold increase over basal value",Swiss 3T3 fibroblasts [1]; 5000 nM,1.8
same,Effect on thymidine incorporation (in words),Swiss 3T3 fibroblasts [1],did not increase incorporation of thymidine
same,% inhibition in the presence of 25 nM BBS (A),Swiss 3T3 fibroblasts [3]; 500 nM,26 ± 8%
same,% inhibition in the presence of 25 nM BBS (B),Swiss 3T3 fibroblasts [3]; 500 nM,87 ± 9%
same,% inhibition in the presence of 25 nM BBS (A),Swiss 3T3 fibroblasts [3]; 5000 nM,44 ± 12%
same,% inhibition in the presence of 25 nM BBS (B),Swiss 3T3 fibroblasts [3]; 5000 nM,83 ± 6%
same,Antagonism of BBS (in words),Swiss 3T3 fibroblasts [3],potent antagonists
same,"Minimal active dose, p115 phosphorylation",[2],100 nM
same,Antagonism of BBS (in words),Swiss 3T3 fibroblasts [4],potent antagonists
